Among the data in patent publication US7342032B2 (dated 2008) are melting point values, retold here.

SMILES strings stand for the structures.

`O=C(NN1CCCCC1)c1nc(-c2ccc(Cl)cc2Cl)c(-c2ccc(Br)cc2)s1` displayed a melting point of 171 to 173 °C.
As for `O=C(NN1CCCCCC1)c1nc(-c2ccc(Cl)cc2Cl)c(-c2ccc(Cl)cc2)s1`, the figure is 185 to 186 °C.
As for `O=C(Nc1ccccc1)c1nc(-c2ccc(Cl)cc2Cl)c(-c2ccc(Cl)cc2)s1`, the figure is 167 to 168 °C; as for `O=C(NCCCC(F)(F)F)c1nc(-c2ccc(Cl)cc2Cl)c(-c2ccc(Cl)cc2)s1`, 99 to 101 °C.
